# Measured values reported in patent publication US4495189A, “Condensed pyrimidines” (priority 1975, dated 1985).
# Where two headings read alike, the source gives them in different places.
# How the values were obtained:
# PGE1 [1] = test: Oedema inhibition, inflammation caused by prostaglandin E1; format: in vivo
# Source text: (§1) Thus, it is appropriate to test the effectiveness of a representative compound of the invention in the inflammation response caused by prostaglandin E1 and E2, particularly from the point of view of the vessel wall permeability, which plays an important role in the inflammation.
# PGE2 [2] = test: Oedema inhibition, inflammation caused by prostaglandin E2; format: in vivo
# Source text: as §1
# PGE1 [3] = test: Vessel wall permeability inhibition, prostaglandin E1; format: in vivo
# Source text: as §1
# PGE2 [4] = test: Vessel wall permeability inhibition, prostaglandin E2; format: in vivo
# Source text: as §1
# in vivo [5] = conditions: rat, po
# in vivo [6] = conditions: mouse, po
# rat paw oedema = test: Antiphlogistic activity, rat paw oedema method (Domenju); format: in vivo
# Experimental: The antiphlogistic activity was tested by the rat paw oedema method (Domenju, R: Ann. Univ. Saraviensis 1,317, 1953). The compound were compared with the currently used therapeutic agents Phenylbutazone, aspirin, Indomethacin, Mebron and Amidazophenum.
# [7] = Antiphlogistic activity, method of Northove; format: in vivo; conditions: 100 mg/kg
# Source text: Favorable antiphlogistic properties were found in tests carried out by the method of Northove.
# rats [8] = test: Chronic toxicity test, ulcerogenicity in rats; format: in vivo; conditions: one-month old rats, 50 mg/kg, chronic toxicity tests
# [9] = test system: collagen induced thrombocyte aggregation; test: Inhibition of collagen induced thrombocyte aggregation (in vitro); format: cell-based
# Source text: In Table 6 the inhibition of collagen induced thrombocyte aggregation under in vitro conditions is shown.
# [10] = Acute toxicity on rats (i.v.); conditions: rat, in vivo, iv
# Source text: (§2) Acute toxicity, analgesic and platelet aggregation inhibiting activity of "CH-105" was compared with the same activities of RIMAZOLIUM. RIMAZOLIUM is a commercial product, which is a quaternary salt chemically, but exerts its activity as a tautomeric enamine [Arzneimittel Forschung 21, 717-719 and 719-727 (1971)].
# rats [11] = test: Analgesic activity on rats, hot plate, per os; format: in vivo; conditions: Rattus norvegicus, po
# Source text: as §2
# mice = test: Analgesic activity on "Writing" test, on mice; format: in vivo; conditions: Mus musculus
# Source text: as §2
# platelet aggregation = test: Platelet aggregation inhibiting activity, comparison of CH-105 and Rimazolium; conditions: same conditions for CH-105 and Rimazolium
# Source text: as §2
# [12] = Pharmacological and toxicological tests (summary)
structure (smiles),measurement,setting,value
CC(=O)Oc1ccccc1C(=O)O [Aspirin],"Oedema inhibition %, PGE1",PGE1 [1]; 200 mg/kg,41%
same,"Oedema inhibition %, PGE1",PGE1 [1]; 500 mg/kg,45%
same,"Oedema inhibition %, PGE2",PGE2 [2]; 200 mg/kg,20%
same,"Oedema inhibition %, PGE2",PGE2 [2]; 500 mg/kg,54%
same,"Vessel wall permeability inhibition %, PGE1",PGE1 [3]; 200 mg/kg,30%
same,"Vessel wall permeability inhibition %, PGE1",PGE1 [3]; 500 mg/kg,42%
same,"Vessel wall permeability inhibition %, PGE2",PGE2 [4]; 200 mg/kg,25%
same,"Vessel wall permeability inhibition %, PGE2",PGE2 [4]; 500 mg/kg,50%
same,LD50,in vivo [5],1600 mg/kg
same,LD50,in vivo [6],1100 mg/kg
"CC1CCC=C2N(C)C=C(C(N)=O)C(=O)N21 (centres unmarked) [CH-105, 1,6-dimethyl-3-carbamoyl-4-oxo-1,6,7,8-tetrahydro-4H-pyrido[1,2-a]pyrimidine]","Oedema inhibiting effect in %, 1 hour after the administration of the substance",rat paw oedema; 100 mg/kg,25%
same,"Oedema inhibiting effect in %, 2 hours after the administration of the substance",rat paw oedema; 100 mg/kg,34%
same,"Oedema inhibiting effect in %, 1 hour after the administration of the substance",rat paw oedema; 300 mg/kg,45%
same,"Oedema inhibiting effect in %, 2 hours after the administration of the substance",rat paw oedema; 300 mg/kg,52%
same,"Oedema inhibiting effect in %, 24 hours after the administration of the substance",rat paw oedema; 300 mg/kg,8%
same,"Oedema inhibition %, PGE1",PGE1 [1]; 200 mg/kg,30%
same,"Oedema inhibition %, PGE1",PGE1 [1]; 500 mg/kg,42%
same,activity as an oedema inhibitor or a vessel wall permeability reducing agent,"PGE1 [1]; data of Table 2, PGE1 and PGE2, compared with aspirin","activity of the same range as the known active prostaglandinantagonist, aspirin"
same,"Oedema inhibition %, PGE2",PGE2 [2]; 200 mg/kg,31%
same,"Oedema inhibition %, PGE2",PGE2 [2]; 500 mg/kg,45%
same,"Vessel wall permeability inhibition %, PGE1",PGE1 [3]; 200 mg/kg,40%
same,"Vessel wall permeability inhibition %, PGE1",PGE1 [3]; 500 mg/kg,40%
same,"Vessel wall permeability inhibition %, PGE2",PGE2 [4]; 200 mg/kg,35%
same,"Vessel wall permeability inhibition %, PGE2",PGE2 [4]; 500 mg/kg,50%
same,"Antiphlogistic activity (%), 1 hour",[7],40%
same,"Antiphlogistic activity (%), 2 hours",[7],55%
same,"Antiphlogistic activity (%), 24 hours",[7],30%
same,ulcerogenicity,rats [8],not ulcerogenic
same,Inhibition of collagen induced thrombocyte aggregation in %,[9]; 1 × 10^-3 mole,100%
same,Inhibition of collagen induced thrombocyte aggregation in %,[9]; 1 × 10^-4 mole,90%
same,LD50,[10],960 µmol/kg
same,ED50,rats [11],410 µmol/kg
same,ED50,mice,210 µmol/kg
same,platelet aggregation inhibiting activity,platelet aggregation,excellent platelet aggregation inhibiting activity
same,"antiphlogistic activity, analgesic activity and therapeutic index (in words)",[12],"significant antiphlogistic activity, analgesic activity and have a favorable therapeutic index"
same,ED50,modified writhing test,70 mg/kg
same,Therapeutic Index,modified writhing test,14
same,LD50,in vivo [5],750 mg/kg
same,LD50,in vivo [6],975 mg/kg
"CC1CCC=C2N(C)C=C(C(=O)NC(C)(C)C)C(=O)N21 (centres unmarked) [Example 5, 1,6-dimethyl-3-(N-tert-butyl-carbamoyl)-4-oxo-1,6,7,8-tetrahydro-4H-pyrido(1,2a)pyrimidine]","Oedema inhibiting effect in %, 2 hours after the administration of the substance",rat paw oedema; 125 mg/kg,50%
same,Inhibition of collagen induced thrombocyte aggregation in %,[9]; 1 × 10^-3 mole,99%
same,Inhibition of collagen induced thrombocyte aggregation in %,[9]; 1 × 10^-4 mole,85%
"CC1CCC=C2N(C)C=C(C(=O)Nc3ccccc3)C(=O)N21 (centres unmarked) [Example 6, 1,6-dimethyl-3-(N-phenylcarbamoyl)-4-oxo-1,6,7,8-tetrahydro-4H-pyrido(1,2a)pyrimidine]","Oedema inhibiting effect in %, 2 hours after the administration of the substance",rat paw oedema; 500 mg/kg,53%
same,Inhibition of collagen induced thrombocyte aggregation in %,[9]; 1 × 10^-3 mole,56%
same,Inhibition of collagen induced thrombocyte aggregation in %,[9]; 1 × 10^-4 mole,29%
"CNC(=O)C1=CN(C)C2=CCCC(C)N2C1=O (centres unmarked) [Example 7, 1,6-dimethyl-3-(N-methyl-carbamoyl)-4-oxo-1,6,7,8-tetrahydro-4H-pyrido(1,2a)pyrimidine]","Oedema inhibiting effect in %, 2 hours after the administration of the substance",rat paw oedema; 500 mg/kg,60%
same,Inhibition of collagen induced thrombocyte aggregation in %,[9]; 1 × 10^-3 mole,100%
same,Inhibition of collagen induced thrombocyte aggregation in %,[9]; 1 × 10^-4 mole,95%
"CC1CCC=C2N(C)C=C(C(=O)NCCC(c3ccccc3)c3ccccc3)C(=O)N21 (centres unmarked) [Example 9, 1,6-dimethyl-3-[N-(3,3-diphenyl-propyl)-carbamoyl]-4-oxo-1,6,7,8-tetrahydro-4H-pyrido(1,2a)pyrimidine]",Inhibition of collagen induced thrombocyte aggregation in %,[9]; 1 × 10^-3 mole,70%
same,Inhibition of collagen induced thrombocyte aggregation in %,[9]; 1 × 10^-4 mole,60%
"CC1CCC=C2N(C)C=C(C(=O)NCCc3ccccc3)C(=O)N21 (centres unmarked) [Example 11, 1,6-dimethyl-3-[N-(2-phenyl-ethyl)-carbamoyl]-4-oxo-1,6,7,8-tetrahydro-4H-pyrido(1,2a)pyrimidine]","Oedema inhibiting effect in %, 2 hours after the administration of the substance",rat paw oedema; 125 mg/kg,38%
same,Inhibition of collagen induced thrombocyte aggregation in %,[9]; 1 × 10^-3 mole,96%
same,Inhibition of collagen induced thrombocyte aggregation in %,[9]; 1 × 10^-4 mole,92%
COc1ccc2c(c1)c(CC(=O)O)c(C)n2C(=O)c1ccc(Cl)cc1 [Indomethacin],ED50,modified writhing test,2.4 mg/kg
same,Therapeutic Index,modified writhing test,12
COc1cc(C)nc(-n2nc(C)cc2OC)n1 [Mebron],"Oedema inhibiting effect in %, 1 hour after the administration of the substance",rat paw oedema; 100 mg/kg,8%
same,"Oedema inhibiting effect in %, 2 hours after the administration of the substance",rat paw oedema; 100 mg/kg,22%
same,"Oedema inhibiting effect in %, 1 hour after the administration of the substance",rat paw oedema; 300 mg/kg,25%
same,"Oedema inhibiting effect in %, 2 hours after the administration of the substance",rat paw oedema; 300 mg/kg,25%
same,"Oedema inhibiting effect in %, 24 hours after the administration of the substance",rat paw oedema; 300 mg/kg,3%
same,"Antiphlogistic activity (%), 1 hour",[7],23%
same,"Antiphlogistic activity (%), 2 hours",[7],23%
same,"Antiphlogistic activity (%), 24 hours",[7],0%
same,Therapeutic Index,in vivo,4.3
same,ED50,modified writhing test,380 mg/kg
CCCCC1C(=O)N(c2ccccc2)N(c2ccccc2)C1=O [Phenylbutazone],"Oedema inhibiting effect in %, 1 hour after the administration of the substance",rat paw oedema; 100 mg/kg,2%
same,"Oedema inhibiting effect in %, 2 hours after the administration of the substance",rat paw oedema; 100 mg/kg,2%
same,"Oedema inhibiting effect in %, 1 hour after the administration of the substance",rat paw oedema; 200 mg/kg,11%
same,"Oedema inhibiting effect in %, 2 hours after the administration of the substance",rat paw oedema; 200 mg/kg,10%
same,"Oedema inhibiting effect in %, 24 hours after the administration of the substance",rat paw oedema; 200 mg/kg,3%
same,"Oedema inhibition %, PGE1",PGE1 [1]; 100 mg/kg,35%
same,"Oedema inhibition %, PGE1",PGE1 [1]; 200 mg/kg,15%
same,"Oedema inhibition %, PGE2",PGE2 [2]; 100 mg/kg,10%
same,"Oedema inhibition %, PGE2",PGE2 [2]; 200 mg/kg,28%
same,"Vessel wall permeability inhibition %, PGE1",PGE1 [3]; 100 mg/kg,10%
same,"Vessel wall permeability inhibition %, PGE1",PGE1 [3]; 200 mg/kg,20%
same,"Vessel wall permeability inhibition %, PGE2",PGE2 [4]; 100 mg/kg,5%
same,"Vessel wall permeability inhibition %, PGE2",PGE2 [4]; 200 mg/kg,20%
same,"Antiphlogistic activity (%), 1 hour",[7],13%
same,"Antiphlogistic activity (%), 2 hours",[7],20%
same,"Antiphlogistic activity (%), 24 hours",[7],0%
same,ED50,modified writhing test,63 mg/kg
"CCOC(=O)c1c[n+](C)c2n(c1=O)C(C)CCC2 (centres unmarked) [Rimazolium, 1,6-dimethyl-3-carbethoxy-4-oxo-6,7,8,9-tetrahydrohomopyrimidazol-methylsulfate]",LD50,[10],610 µmol/kg
same,ED50,rats [11],620 µmol/kg
same,ED50,mice,1050 µmol/kg
same,platelet aggregation inhibiting activity,platelet aggregation,practically ineffective
